Results published in ChEMBL document CHEMBL4028815, “Novel phosphonate analogs of sulforaphane: Synthesis, in vitro and in vivo anticancer activity” (Eur J Med Chem, 2017).
pIC50: −log10 of the molar value. The source made the active and inactive calls. The rule behind the calls is not given here.

Experiments:
[1] = system: LoVo/DX; test: Induction of apoptosis in human LoVo/DX cells assessed as late apoptotic cells at 15 uM after 24 hrs by APC-Annexin-V/propidium iodide staining based flow cytometric method relative to control; type: functional
[2] = system: Mus musculus; test: Toxicity in BALB/c mdb mouse implanted with mouse 4T1 cells assessed as lung weight at 300 umol/kg, ip administered five times weekly measured at 29 day post cell innoculum (reference value: 0.2 +/- 0.018 g); type: organism-based; settings: in vivo, 696 h
[3] = system: Mus musculus; test: Toxicity in BALB/c mdb mouse implanted with mouse 4T1 cells assessed as body weight loss at 300 umol/kg, ip administered five times weekly measured on day 11 post cell innoculum; type: organism-based; settings: in vivo
[4] = Induction of apoptosis in human LoVo/DX cells assessed as increase in caspase3/7 activity at 15 uM using Ac-DEVD-ACC as substrate pretreated for 24 hrs followed by substrate addition measured for 2 hrs by fluorescence assay relative to control; type: functional
[5] = system: 4T1; test: Anti-tumor activity against mouse 4T1 cells implanted in BALB/c mdb mouse assessed as tumor growth inhibition at 300 umol/kg, ip administered five times weekly measured on day 15 post cell innoculum relative to control; type: functional; settings: 4T1, ip, 360 h, read-out: TGI
[6] = system: Mus musculus; test: Toxicity in BALB/c mdb mouse implanted with mouse 4T1 cells assessed as spleen weight at 300 umol/kg, ip administered five times weekly measured at 29 day post cell innoculum (reference value: 0.603 +/- 0.133 g); type: organism-based; settings: in vivo, 696 h
[7] = system: Mus musculus; test: Toxicity in BALB/c mdb mouse implanted with mouse 4T1 cells assessed as hematocrit at 300 umol/kg, ip administered five times weekly measured at 29 day post cell innoculum (reference value: 39.9 +/- 3.7 %); type: organism-based; settings: in vivo, 696 h
[8] = system: 4T1; test: Anti-tumor activity against mouse 4T1 cells implanted in BALB/c mdb mouse assessed as lung metastasis at 300 umol/kg, ip administered five times weekly measured at 29 days post cell innoculum (reference value: 56 +/- 25); type: functional
[9] = system: Mus musculus; test: Nephrotoxicity in BALB/c mdb mouse implanted with mouse 4T1 cells assessed as kidney weight at 300 umol/kg, ip administered five times weekly measured at 29 day post cell innoculum (reference value: 0.136 +/- 0.006 g); type: toxicity, organism-based; settings: in vivo, 696 h
[10] = system: Mus musculus; test: Toxicity in BALB/c mdb mouse implanted with mouse 4T1 cells assessed as serum urea level at 300 umol/kg, ip administered five times weekly measured at 29 day post cell innoculum (reference value: 3.8 +/- […]); type: organism-based; settings: in vivo, 696 h
[11] = system: LoVo; test: Cell cycle arrest in human LoVo cells at 15 uM after 24 hrs by propidium iodide staining based flow cytometric method; type: functional
[12] = system: LoVo; test: Induction of apoptosis in human LoVo cells assessed as increase in early apoptotic cells at 15 uM after 24 hrs by APC-Annexin-V/propidium iodide staining based flow cytometric method relative to control; type: functional
[13] = system: Mus musculus; test: Toxicity in BALB/c mdb mouse implanted with mouse 4T1 cells assessed as serum creatinine level at 300 umol/kg, ip administered five times weekly measured at 29 day post cell innoculum (reference value: 9.3 +/- 1.2 umol/L); type: organism-based; settings: in vivo, 696 h
[14] = system: Mus musculus; test: Hepatotoxicity in BALB/c mdb mouse implanted with mouse 4T1 cells assessed as liver weight at 300 umol/kg, ip administered five times weekly measured at 29 day post cell innoculum (reference value: 1.2 +/- 0.13 g); type: toxicity, organism-based; settings: in vivo, 696 h
[15] = system: Mus musculus; test: Toxicity in BALB/c mdb mouse implanted with mouse 4T1 cells assessed as WBC level at 300 umol/kg, ip administered five times weekly measured at 29 day post cell innoculum (reference value: 212.3 +/- 82.8 10^3/uL); type: organism-based; settings: in vivo, 696 h
[16] = system: Mus musculus; test: Toxicity in BALB/c mdb mouse implanted with mouse 4T1 cells assessed as hemoglobin level at 300 umol/kg, ip administered five times weekly measured at 29 day post cell innoculum (reference value: 15.1 +/- 1.5 g/dl); type: organism-based; settings: in vivo, 696 h
[17] = system: Mus musculus; test: Toxicity in BALB/c mdb mouse implanted with mouse 4T1 cells assessed as RBC level at 300 umol/kg, ip administered five times weekly measured at 29 day post cell innoculum (reference value: 8.6 +/- 0.9 10^6/uL); type: organism-based; settings: in vivo, 696 h
[18] = Induction of apoptosis in human LoVo/DX cells assessed as loss of mitochondrial membrane potential at 15 uM after 24 hrs by JC-1 staining based flow cytometric method relative to control; type: functional
[19] = system: Mus musculus; test: Toxicity in BALB/c mdb mouse implanted with mouse 4T1 cells assessed as serum PLT level at 300 umol/kg, ip administered five times weekly measured at 29 day post cell innoculum (reference value: 972 +/- 157 10^3/uL); type: organism-based; settings: in vivo, 696 h
[20] = system: LoVo; test: Induction of apoptosis in human LoVo cells assessed as increase in caspase3/7 activity at 15 uM using Ac-DEVD-ACC as substrate pretreated for 24 hrs followed by substrate addition measured for 2 hrs by fluorescence assay relative to control; type: functional
[21] = system: Mus musculus; test: Toxicity in BALB/c mdb mouse implanted with mouse 4T1 cells assessed as serum ALT level at 300 umol/kg, ip administered five times weekly measured at 29 day post cell innoculum (reference value: 23.8 +/- 2.2 U/L); type: organism-based; settings: in vivo, 696 h
[22] = system: Mus musculus; test: Toxicity in BALB/c mdb mouse implanted with mouse 4T1 cells assessed as body weight loss at 300 umol/kg, ip administered on day 14 post cell innoculum; type: organism-based; settings: in vivo
[23] = system: LoVo; test: Induction of apoptosis in human LoVo cells assessed as late apoptotic cells at 15 uM after 24 hrs by APC-Annexin-V/propidium iodide staining based flow cytometric method relative to control; type: functional
[24] = system: LoVo; test: Induction of apoptosis in human LoVo cells assessed as loss of mitochondrial membrane potential at 15 uM after 24 hrs by JC-1 staining based flow cytometric method relative to control; type: functional
[25] = system: Mus musculus; test: Toxicity in BALB/c mdb mouse implanted with mouse 4T1 cells assessed as serum AST level at 300 umol/kg, ip administered five times weekly measured at 29 day post cell innoculum (reference value: 136 +/- 10.3 U/L); type: organism-based; settings: in vivo, 696 h
[26] = system: LoVo; test: Induction of apoptosis in human LoVo cells assessed as necrotic cells at 15 uM after 24 hrs by APC-Annexin-V/propidium iodide staining based flow cytometric method (reference value: 10%); type: functional
[27] = system: 4T1; test: Anti-tumor activity against mouse 4T1 cells implanted in BALB/c mdb mouse assessed as tumor growth inhibition at 300 umol/kg, ip administered five times weekly measured on day 29 post cell innoculum relative to control; type: functional; settings: 4T1, ip, 696 h, read-out: TGI
[28] = system: 4T1; test: Cytotoxicity against mouse 4T1 cells after 72 hrs by sulforhodamine B assay; type: functional, cell-based; settings: 4T1, 72 h
[29] = system: LoVo; test: Potency index, ratio of sulforaphane IC50 to compound IC50 for human LoVo cells; type: functional
[30] = system: A549; test: Cytotoxicity against human A549 cells after 72 hrs by sulforhodamine B assay; type: functional, cell-based; settings: A549, 72 h
[31] = Resistance index, ratio of IC50 for human HL60/MX2 cells to IC50 for human HL60 cells; type: functional
[32] = system: LoVo; test: Induction of apoptosis in human LoVo cells assessed as increase in caspase3/7 activity at >15 uM using Ac-DEVD-ACC as substrate pretreated for 24 hrs followed by substrate addition measured for 2 hrs by fluorescence assay; type: functional, cell-based
[33] = system: LoVo; test: Cytotoxicity against human LoVo cells assessed as cell death at >15 uM after 24 hrs; type: cell-based
[34] = Cytotoxicity against human LoVo/DX cells assessed as cell death at >15 uM after 24 hrs; type: cell-based
[35] = system: MES-SA; test: Cytotoxicity against human MESSA cells after 72 hrs by sulforhodamine B assay; type: functional, cell-based
[36] = system: LoVo/DX; test: Cell cycle arrest in human LoVo/DX cells at 15 uM after 24 hrs by propidium iodide staining based flow cytometric method; type: functional
[37] = system: HL-60; test: Cytotoxicity against human HL60 cells after 72 hrs by sulforhodamine B assay; type: functional, cell-based; settings: HL-60, 72 h
[38] = system: LoVo; test: Cytotoxicity against human LoVo cells after 72 hrs by sulforhodamine B assay; type: functional, cell-based
[39] = Resistance index, ratio of IC50 for human LoVo/DX cells to IC50 for human LoVo cells; type: functional
[40] = system: HL60/MX2; test: Cytotoxicity against human HL60/MX2 cells after 72 hrs by sulforhodamine B assay; type: functional, cell-based; settings: HL60/MX2, 72 h
[41] = system: BALB/3T3; test: Cytotoxicity against mouse BALB/3T3 cells after 72 hrs by sulforhodamine B assay; type: cell-based; settings: BALB/3T3, 72 h
[42] = system: LoVo; test: Potency index, ratio of benzyl isothiocyanate IC50 to compound IC50 for human LoVo cells; type: functional
[43] = system: LoVo/DX; test: Induction of apoptosis in human LoVo/DX cells assessed as increase in caspase3/7 activity at >15 uM using Ac-DEVD-ACC as substrate pretreated for 24 hrs followed by substrate addition measured for 2 hrs by fluorescence assay; type: functional, cell-based
[44] = system: Mus musculus; test: Toxicity in BALB/c mdb mouse implanted with mouse 4T1 cells assessed as body weight loss at 300 umol/kg, ip administered five times weekly measured 3 times weekly during compound dosing; type: organism-based; settings: in vivo
[45] = Cytotoxicity against human LoVo/DX cells after 72 hrs by sulforhodamine B assay; type: functional, cell-based
[46] = system: MES-SA/Dx5; test: Cytotoxicity against human MESSA/DX5 cells after 72 hrs by sulforhodamine B assay; type: functional, cell-based; settings: MES-SA/Dx5, 72 h

For `S=C=NCc1ccccc1` [BENZYL ISOTHIOCYANATE], the Activity [1] was “Active”, the Activity [2] was 0.245 g and the Activity [3] was “Toxic”. For the same compound, the “fold change (FC)” value [4] was 9.4, the inhibition in vivo at 300 µmol/kg [5] was 18.1% and the Activity [6] was 0.428 g. It also gave an Activity [7] of 45.1%, an Activity [8] of 36 and an Activity [9] of 0.13 g. For the same compound, the Activity [10] was 5.6 mmol/L, the Activity [11] was “Active” and the Activity [12] was 17.8%. It also gave an Activity [13] of 9.7 µmol/L, an Activity [14] of 1.21 g and an Activity [15] of 300.8 ×10³ /uL. For the same compound, the Activity [16] was 16 g/dL, the Activity [17] was 8.8 ×10⁶ /uL and the Activity [18] was 64.6%. For the same compound, the Activity [19] was 871 ×10³ /uL, the “fold change (FC)” value [20] was 11 and the Activity [21] was 21.5 U/L. For the same compound, the Activity [22] was “Non-Toxic”, the Activity [23] was “Active” and the Activity [24] was 67.6%. For the same compound, the Activity [25] was 158.6 U/L, the Activity [26] was “Active” and the inhibition in vivo at 300 µmol/kg [27] was 26.8%.

With `CC(C)OP(=O)(CCCCCCN=C=S)OC(C)C` the Activity [1] was “Active”, the pIC50 [28] was 5.60 and the Activity [2] was 0.222 g. The “Ratio IC50” value [29] was 10, the pIC50 [30] was 5.00 and the “fold change (FC)” value [4] was 2.2. For the same compound, the inhibition in vivo at 300 µmol/kg [5] was 40.4 to 41%, the Activity [6] was 0.535 g and the “Ratio IC50” value [31] was 1.4. The Activity [7] was 49.6%, the Activity [8] was 49 and the Activity [32] was “inactive”. For the same compound, the Activity [33] was “Toxic”, the Activity [34] was “Toxic” and the Activity [9] was 0.147 g. For the same compound, the Activity [10] was 4.7 mmol/L, the pIC50 [35] was 5.02 and the Activity [11] was “inactive”. For the same compound, the Activity [12] was “inactive”, the Activity [13] was 7.1 µmol/L and the Activity [14] was 1.32 g. For the same compound, the Activity [15] was 259.1 ×10³ /uL, the Activity [36] was “inactive” and the pIC50 [37] was 5.54. The pIC50 [38] was 5.57, the “Ratio IC50” value [39] was 3.5 and the Activity [16] was 18.2 g/dL. It also gave a pIC50 [40] of 5.40, an Activity [17] of 10 ×10⁶ /uL and an Activity [18] of 35%. For the same compound, the Activity [19] was 767 ×10³ /uL, the “fold change (FC)” value [20] was 3 and the pIC50 [41] was 4.93. The “Ratio IC50” value [42] was 5, the Activity [21] was 26.6 U/L and the Activity [23] was “Active”. The Activity [43] was “inactive”, the Activity [24] was 35% and the Activity [25] was 163.3 U/L. The Activity [26] was “Active”, the Activity [44] was “<= 10%” and the pIC50 [45] was 5.03. It also gave a pIC50 [46] of 5.24 and an inhibition in vivo at 300 µmol/kg [27] of -0.2%.
